In PMC12700550, “DLL4^+ neutrophils promote Notch1-mediated endothelial PANoptosis to exacerbate acute lung injury in sepsis” (The Journal of Clinical Investigation, 2025):
“And” between values parts separate entries of the source, which are not always exact repeats. Equal values may be shown once.

How the values were obtained:
ZBP1 [1] = assay: ZBP1 protein in PVECs cocultured with neutrophils, Western blot; assay type: cell-based, mouse; conditions: for ZBP1 protein level (Figure 4F): 10 μM peptide, 16 h, individual replicates
Experimental: (§1) Wild-type PVECs (5 × 10^5) were cocultured with sorted DLL4^+ neutrophils (5 × 10^5) or DLL4^– neutrophils (5 × 10^5) and then treated with different dosages of peptides or 10 μM DAPT (Thermo Fisher Scientific), 10 μM NDI (GenScript), or 10 μM NDI scramble (GenScript). Notch1-knockdown PVECs (5 × 10^5) were cocultured with sorted DLL4^+ neutrophils (5 × 10^5). After 16 hours, neutrophils were washed away by PBS, and PVECs were collected for further experiments. Cell viability was evaluated by propidium iodide staining using the FITC Annexin V Apoptosis Detection Kit I (catalog 556547, BD Pharmingen). Cell death was quantified as the percentage of propidium iodide–positive cells by flow cytometry.
(§2) PVECs and lung tissue were collected in previous steps. Whole-cell proteins were extracted, and the protein concentration was measured using an ABC protein assay kit (catalog 5000002, Bio-Rad). Proteins were separated using NuPAGE 4%–12% Bis-Tris gels (Invitrogen), transferred to PVDF membranes, and immunoblotted with the antibodies indicated in the figure legends according to the manufacturer’s recommendations. The ZBP1 antibody (catalog PA5-20455; 1:1,000) used in this study was obtained from Thermo Fisher Scientific, and the c-GSDMD (catalog 10137S; 1:250), GSDMD (catalog 39754S; 1:1000), c-caspase-3 (catalog 9661L; 1:250), caspase-3 (catalog 9662S; 1:1,000), p-MLKL (catalog 37333S; 1:250), MLKL (catalog 37705S; 1:1,000), N1ICD (c-Notch1) (catalog 4147S; 1:250), and Notch1 (catalog 3608S; 1:1,000) antibodies were obtained from Cell Signaling Technology. GAPDH (catalog 60004-1-Ig; 1:10,000) and β-actin (catalog A5441, Sigma-Aldrich; 1:5,000) were obtained from ProteinTech. After the blots were incubated with primary antibodies, the membranes were washed 3 times, and the blots were subsequently incubated with the corresponding fluorescent secondary antibody (LI-COR). Bands were detected using an Odyssey FC Dual-Mode Imaging system 2800 (LI-COR).

c-GSDMD = assay: c/t GSDMD (pyroptosis) in PVECs cocultured with neutrophils, Western blot; assay type: cell-based, mouse; conditions: for c/t GSDMD (Figure 4G): 10 μM peptide, 16 h, individual replicates
Experimental: as §1, §2

ZBP1 [2] = assay: ZBP1 mRNA in lungs of CLP mice, RT-PCR; assay type: in vivo, mouse; conditions: 20 h; for lung ZBP1 mRNA (Figure 5A): 10 mg/kg NDI retro-orbital, vs sham, individual mice, 10 mg/kg
Experimental: (§3) Sepsis was induced in mice by cecal ligation and puncture (CLP) as described previously ([45], [46]). Mice were anesthetized with isoflurane to a surgical plane and placed in a supine position. CLP was performed through a midline laparotomy. The abdomen was shaved and disinfected. Through a 2 cm midline incision, the cecum was exposed and then ligated with a 4-0 silk suture 1 cm proximal from the distal cecal extremity. For 20-hour CLP experiments, the cecum was punctured twice with a 22-gauge needle. A small amount of cecal content was extruded through both holes, and the ligated cecum was returned to the peritoneal cavity. The wound was closed in layers. For 10-day sepsis survival studies, the cecum was punctured once with a 22-gauge needle. A small amount of cecal content was extruded. Mice were allocated to the vehicle and adoptive transfer of DLL4^+ neutrophils or DLL4^– neutrophils groups. Adoptive transfer mice received a retro-orbital injection of 1 × 10^6 cells per mouse DLL4^+ neutrophils or DLL4^– neutrophils in […] phosphate-buffered saline (PBS) immediately after abdominal closure in both the 20-hour experiments and the survival study. Vehicle groups received an equivalent volume of PBS, while treatment groups received NDI 10 mg/kg in […] PBS via retro-orbital injection after CLP. This dose was chosen primarily on the basis of our laboratory’s prior experience, we have consistently used this dose in mouse CLP models with reproducible efficacy and without observable toxicity ([39], [44]). Sham-operated animals underwent a laparotomy without CLP. After closure, the mice received a subcutaneous injection of 0.5 mL of normal saline to overcome surgery-induced dehydration. For 20-hour experiments, animals were not injected with antibiotics; however, for survival studies, animals were given 0.5 mg per kg body weight imipenem (lot 4D21K05, WG Critical Care LLC) subcutaneously in 0.5 mL saline once at the end of CLP. All mice were subcutaneously injected with a single dose of 0.1 mg/kg buprenorphine after CLP. […]

C57BL/6 mice, CLP sepsis = assay: Serum aspartate aminotransferase (AST), CLP mice; assay type: in vivo, mouse; design: serum AST (Figure 6B): unit not given here; conditions: 20 h; for serum AST (Figure 6B): 10 mg/kg NDI, individual mice
Experimental: Sepsis was induced in mice by cecal ligation and puncture (CLP) as described previously ([45], [46]). Mice were anesthetized with isoflurane to a surgical plane and placed in a supine position. CLP was performed through a midline laparotomy. The abdomen was shaved and disinfected. Through a 2 cm midline incision, the cecum was exposed and then ligated with a 4-0 silk suture 1 cm proximal from the distal cecal extremity. […] A small amount of cecal content was extruded through both holes, and the ligated cecum was returned to the peritoneal cavity. The wound was closed in layers. […] A small amount of cecal content was extruded. […] Vehicle groups received an equivalent volume of PBS, while treatment groups received NDI 10 mg/kg in […] PBS via retro-orbital injection after CLP. This dose was chosen primarily on the basis of our laboratory’s prior experience, we have consistently used this dose in mouse CLP models with reproducible efficacy and without observable toxicity ([39], [44]). Sham-operated animals underwent a laparotomy without CLP. After closure, the mice received a subcutaneous injection of 0.5 mL of normal saline to overcome surgery-induced dehydration. […] All mice were subcutaneously injected with a single dose of 0.1 mg/kg buprenorphine after CLP. Serum levels of alanine aminotransferase, aspartate aminotransferase, and lactate dehydrogenase were determined using specific colorimetric enzymatic assays (Pointe Scientific Inc.) according to the manufacturer’s instructions.

TNF-α = assay: Lung TNF-α mRNA, CLP mice; assay type: in vivo, mouse; conditions: 20 h; for lung TNF-α mRNA (Figure 6F): 10 mg/kg NDI, vs sham, individual mice
Experimental: as §3

[3] = 10 μM NDI, DLL4^+ neutrophil coculture
[4] = DLL4^+ neutrophil-injected CLP mice, 10 mg/kg

ECAGSPCHNGGTCEDGI [NDI]
effect on ZBP1 protein (ZBP1 [1]; [3]): significantly attenuated by NDI treatment | effect on ZBP1, c-GSDMD, c-caspase-3, and p-MLKL (ZBP1 [1]; 10 μM NDI, DLL4^– neutrophil coculture): less effect on the DLL4^– neutrophil coculture group | ZBP1 protein level (Figure 4F) (ZBP1 [1]; DLL4^+ neutrophil coculture): 3.384 and 1.384 and 0.9406 and 0.8744 and 0.4031 and 0.6648 and 0.9901 and 0.7708 and 1.063 and 1.037 and 1.784 and 1.376 and 1.24 and 1.14 | ZBP1 protein level (Figure 4F) (ZBP1 [1]; DLL4^– neutrophil coculture): 1.4609 and 1.716 and 1.338 and 0.9958 and 0.6394 | effect on c-GSDMD (c-GSDMD; [3]): significantly reduced these markers of PANoptosis | c/t GSDMD (Figure 4G) (c-GSDMD; DLL4^+ neutrophil coculture): 1.2879 and 0.9868 and 1.126 and 1.624 and 1.978 and 2.103 and 0.1622 and 0.328 and 1.184 | c/t GSDMD (Figure 4G) (c-GSDMD; DLL4^– neutrophil coculture): 0.692 and 1.126 and 1.001 and 1.013 and 0.9854 and 1.021 | lung ZBP1 mRNA (Figure 5A) (ZBP1 [2]; DLL4^+ neutrophils i.v. + CLP): 2.489 fold change and 2.951 fold change and 0.6537 fold change and 1.296 fold change and 1.101 fold change and 2.543 fold change and 1.904 fold change and 2.345 fold change and 0.6068 fold change and 1.613 fold change and 2.244 fold change and 2.348 fold change and 0.6906 fold change | effect on lung ZBP1 mRNA (ZBP1 [2]; DLL4^+ neutrophils/sepsis, 10 mg/kg NDI): effectively decreased ZBP1 expression | lung ZBP1 mRNA (Figure 5A) (ZBP1 [2]; DLL4^– neutrophils + CLP): 3.779 fold change and 3.701 fold change and 3.374 fold change and 2.776 fold change and 2.9508 fold change and 2.383 fold change and 4.109 fold change and 2.422 fold change | effect on serum AST (C57BL/6 mice, CLP sepsis; [4]): significantly reduced the serum levels of hepatic and cell injury markers and proinflammatory cytokines | serum AST (Figure 6B) (C57BL/6 mice, CLP sepsis; DLL4^+ neutrophils + CLP): 63.648 and 54.808 and 59.67 and 72.046 and 53.04 and 50.83 and 58.786 and 52.156 and 37.57 and 64.974 and 46.852 and 66.3 and 46.41 and 34.918 and 42.432 and 51.272 | serum AST (Figure 6B) (C57BL/6 mice, CLP sepsis; DLL4^– neutrophils + CLP): 66.3 and 67.184 and 102.102 and 72.046 and 55.25 and 53.482 and 43.758 and 50.83 | effect on lung TNF-α mRNA (TNF-α; [4]): significantly decreased the mRNA expression of TNF-α, IL-6, and KC in lung tissues | lung TNF-α mRNA (Figure 6F) (TNF-α; DLL4^+ neutrophils + CLP): 4.255 fold change and 2.291 fold change and 5.674 fold change and 4.568 fold change and 3.143 fold change and 2.408 fold change and 0.5968 fold change and 4.125 fold change and 0.8652 fold change and 4.064 fold change and 0.4766 fold change and 9.1932 fold change and 5.227 fold change and 8.424 fold change | lung TNF-α mRNA (Figure 6F) (TNF-α; DLL4^– neutrophils + CLP): 8.678 fold change and 9.157 fold change and 5.574 fold change and 9.371 fold change and 6.524 fold change and 4.342 fold change and 3.267 fold change and 5.109 fold change and 7.731 fold change
